Values of other authors as cited in patent US20020094316A1, “Polypodal chelants for metallopharmaceuticals” (priority 2001, published 2002).

Legend:
[1] = compared with MECAM

In the case of `O=C([O-])CN1CCN(CC(=O)[O-])CCN(CC(=O)[O-])CCN(CC(=O)[O-])CC1.[Gd+3]` [Gd(DOTA)^−], the half-life (in 0.1 M HCl) is given as 60.2 h.
In the case of `O=C(N[C@H]1COC(=O)[C@@H](NC(=O)c2cccc(O)c2O)COC(=O)[C@@H](NC(=O)c2cccc(O)c2O)COC1=O)c1cccc(O)c1O` [enterobactin], the “stability of Fe^3+ complex relative to MECAM” value [1] is given as “much more stable”.
For `O=C([O-])CN(CCN(CC(=O)[O-])CC(=O)[O-])CCN(CC(=O)[O-])CC(=O)[O-].[Gd+3]` [Gd(DTPA)^2−], the “Kobs (decomposition)” value (acidic conditions) is listed as 1.2×10^−3 so^−1.
